The record followed here is patent US9000186B2, “Ring-fused heterocyclic derivative” (Kyowa Hakko Kirin Co., Ltd., priority 2011, dated 2015).

As usually defined, the IC50 is the midpoint of a concentration-inhibition curve.

T1 sequence (O95180 whole entry): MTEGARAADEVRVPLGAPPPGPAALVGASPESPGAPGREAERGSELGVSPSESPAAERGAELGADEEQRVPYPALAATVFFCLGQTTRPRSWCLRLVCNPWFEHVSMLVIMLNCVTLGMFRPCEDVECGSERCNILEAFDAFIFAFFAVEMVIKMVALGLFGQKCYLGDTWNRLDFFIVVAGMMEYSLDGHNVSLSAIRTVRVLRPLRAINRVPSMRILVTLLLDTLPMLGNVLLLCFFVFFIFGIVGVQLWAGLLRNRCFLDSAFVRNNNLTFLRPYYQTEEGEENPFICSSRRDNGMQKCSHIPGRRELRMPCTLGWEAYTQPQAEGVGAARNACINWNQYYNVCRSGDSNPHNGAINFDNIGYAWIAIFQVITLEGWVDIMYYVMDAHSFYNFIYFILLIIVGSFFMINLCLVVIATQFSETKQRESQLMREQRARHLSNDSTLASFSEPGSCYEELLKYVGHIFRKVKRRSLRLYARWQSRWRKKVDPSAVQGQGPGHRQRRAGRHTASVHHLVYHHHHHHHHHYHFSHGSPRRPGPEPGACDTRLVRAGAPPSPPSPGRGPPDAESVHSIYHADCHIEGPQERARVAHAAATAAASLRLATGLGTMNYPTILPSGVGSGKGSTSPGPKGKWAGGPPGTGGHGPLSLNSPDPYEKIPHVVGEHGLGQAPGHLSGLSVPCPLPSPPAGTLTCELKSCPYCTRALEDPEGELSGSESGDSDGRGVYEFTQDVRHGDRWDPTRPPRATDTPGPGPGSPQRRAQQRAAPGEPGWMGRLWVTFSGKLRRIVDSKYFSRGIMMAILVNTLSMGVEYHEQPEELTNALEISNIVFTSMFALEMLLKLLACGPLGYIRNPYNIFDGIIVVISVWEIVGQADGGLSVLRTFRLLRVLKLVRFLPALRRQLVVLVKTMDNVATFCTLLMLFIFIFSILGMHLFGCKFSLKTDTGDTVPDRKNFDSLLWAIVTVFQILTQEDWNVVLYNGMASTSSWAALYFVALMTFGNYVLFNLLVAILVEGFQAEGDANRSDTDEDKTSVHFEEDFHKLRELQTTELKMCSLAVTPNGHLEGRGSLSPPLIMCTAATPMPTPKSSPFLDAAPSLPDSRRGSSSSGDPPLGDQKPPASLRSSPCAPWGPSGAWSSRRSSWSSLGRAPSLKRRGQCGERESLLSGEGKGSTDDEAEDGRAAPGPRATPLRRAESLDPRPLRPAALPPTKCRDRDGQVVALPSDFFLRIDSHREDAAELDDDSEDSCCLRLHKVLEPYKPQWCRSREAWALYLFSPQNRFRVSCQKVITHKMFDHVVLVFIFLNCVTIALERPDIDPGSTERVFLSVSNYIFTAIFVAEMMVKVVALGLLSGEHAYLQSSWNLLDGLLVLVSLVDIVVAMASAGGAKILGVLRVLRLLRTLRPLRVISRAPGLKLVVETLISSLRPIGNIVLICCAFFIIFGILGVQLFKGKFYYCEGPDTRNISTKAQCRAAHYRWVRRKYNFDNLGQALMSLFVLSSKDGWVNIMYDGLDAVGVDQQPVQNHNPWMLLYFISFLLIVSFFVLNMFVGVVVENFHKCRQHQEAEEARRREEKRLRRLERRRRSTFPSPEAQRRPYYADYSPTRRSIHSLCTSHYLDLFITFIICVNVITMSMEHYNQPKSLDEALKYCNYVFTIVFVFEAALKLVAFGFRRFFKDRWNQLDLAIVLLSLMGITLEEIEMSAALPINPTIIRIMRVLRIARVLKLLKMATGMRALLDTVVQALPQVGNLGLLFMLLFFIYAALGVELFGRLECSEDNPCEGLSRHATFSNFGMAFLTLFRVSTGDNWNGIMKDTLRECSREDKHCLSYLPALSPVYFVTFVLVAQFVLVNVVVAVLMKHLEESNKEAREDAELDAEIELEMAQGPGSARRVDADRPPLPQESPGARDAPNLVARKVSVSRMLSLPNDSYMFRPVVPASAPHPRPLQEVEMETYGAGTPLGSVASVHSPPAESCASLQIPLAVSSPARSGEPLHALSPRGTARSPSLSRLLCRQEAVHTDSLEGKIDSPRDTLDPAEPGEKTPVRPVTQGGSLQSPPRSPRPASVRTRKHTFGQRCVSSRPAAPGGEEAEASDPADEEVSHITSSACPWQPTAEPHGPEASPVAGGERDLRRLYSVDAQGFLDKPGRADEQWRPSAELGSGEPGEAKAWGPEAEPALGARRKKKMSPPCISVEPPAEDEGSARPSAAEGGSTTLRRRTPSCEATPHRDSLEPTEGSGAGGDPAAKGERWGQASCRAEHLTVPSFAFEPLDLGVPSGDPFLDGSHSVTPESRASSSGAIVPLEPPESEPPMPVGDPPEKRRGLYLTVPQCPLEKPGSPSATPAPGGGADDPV

The first test addresses T1, human Cav3.2 T-type Ca2+ channel (Homo sapiens, UniProt O95180).
T1 construct: expressed in transfected cells; host or cells: KJMGER8 cells (Namalwa cell-derived cell line)
Put plainly: Inhibitory effect for intracellular calcium response via Cav3.2 T-type Ca2+ channels (FLIPR Calcium 3 Assay Kit). Type of test: cell-based.
Conditions: not given
For orientation: Calcium flux is commonly read through the fluorescence of an indicator in the cells.
On to `Cc1cc(C(=O)NOC2CCOCC2)cc2nc(C(F)(F)F)c(CC3CCC(F)(F)CC3)n12` [Compound 90, 3-(4,4-Difluorocyclohexylmethyl)-5-methyl-N-(tetrahydro-2H-pyran-4-yloxy)-2-trifluoromethylimidazo[1,2-a]pyridine-7-carboxamide], for which the IC50 is less than 100 nM.

On to `Cc1cc(C(=O)N(C)C2CCOCC2)cc2nc(C(F)(F)F)c(CC3CCC(F)(F)CC3)n12` [Compound 91, 3-(4,4-Difluorocyclohexylmethyl)-N,5-dimethyl-N-(tetrahydro-2H-pyran-4-yl)-2-trifluoromethylimidazo[1,2-a]pyridine-7-carboxamide], for which the IC50 was less than 100 nM.

Take `Cc1cc(C(=O)NCC2(C)COC2)cc2nc(C(F)(F)F)c(CC3CCC(F)(F)CC3)n12` [Compound 95, 3-(4,4-Difluorocyclohexylmethyl)-5-methyl-N-{(3-methyloxetan-3-yl)methyl}-2-trifluoromethylimidazo[1,2-a]pyridine-7-carboxamide]: the IC50 was less than 100 nM.

Consider `COC(C)(C)c1nc2cc(C(=O)NC3CCOCC3)cc(C)n2c1CC1CCC(F)(F)CC1` [Compound 97, 3-(4,4-Difluorocyclohexylmethyl)-2-(2-methoxypropan-2-yl)-5-methyl-N-(tetrahydro-2H-pyran-4-yl)imidazo[1,2-a]pyridine-7-carboxamide], for which the IC50 is less than 100 nM.

Consider `O=C(Nc1ccccc1)c1cc(Cl)n2c(CC3CCC(F)(F)CC3)c(C(F)(F)F)nc2c1` [Compound 102, 5-Chloro-3-(4,4-difluorocyclohexylmethyl)-N-phenyl-2-trifluoromethylimidazo[1,2-a]pyridine-7-carboxamide], for which the IC50 was less than 100 nM.

For the compound `O=C(NCC1CCOC1)c1cc(Cl)n2c(CC3CCC(F)(F)CC3)c(C(F)(F)F)nc2c1` (centres unmarked) [Compound 106, 5-Chloro-3-(4,4-difluorocyclohexylmethyl)-N-{(tetrahydrofuran-3-yl)methyl}-2-trifluoromethylimidazo[1,2-a]pyridine-7-carboxamide], the IC50 is less than 100 nM.

In the case of `CC(C)(c1nc2cc(C(=O)NC3CCOCC3)c(Cl)cn2c1CC1CCC(F)(F)CC1)C(F)(F)F` [Compound 115, 6-Chloro-3-(4,4-difluorocyclohexylmethyl)-N-(tetrahydro-2H-pyran-4-yl)-2-(1,1,1-trifluoro-2-methylpropan-2-yl)imidazo[1,2-a]pyridine-7-carboxamide], the IC50 is less than 100 nM.

As for `O=C(Nc1ccccc1)c1cc2nc(C(F)(F)F)c(CC3CCC(F)(F)CC3)n2cc1Br` [Compound 117, 6-Bromo-3-(4,4-difluorocyclohexylmethyl)-N-phenyl-2-trifluoromethylimidazo[1,2-a]pyridine-7-carboxamide], the IC50 was less than 100 nM.

`Cc1c(Cl)c(C(=O)NC2CCOCC2)cc2nc(C(F)(F)F)c(CC3CCC(F)(F)CC3)n12` [Compound 124, 6-Chloro-3-(4,4-difluorocyclohexylmethyl)-5-methyl-N-(tetrahydro-2H-pyran-4-yl)-2-trifluoromethylimidazo[1,2-a]pyridine-7-carboxamide]: the IC50 is less than 100 nM.

For the compound `Cc1c(I)c(C(=O)Nc2ccccc2)cc2nc(C(F)(F)F)c(CC3CCC(F)(F)CC3)n12` [Compound 125, 3-(4,4-Difluorocyclohexylmethyl)-6-iodo-5-methyl-N-phenyl-2-trifluoromethylimidazo[1,2-a]pyridine-7-carboxamide], the IC50 is less than 100 nM.

In the case of `CC(C)c1nc2cc(C(=O)Nc3ccccc3)ccn2c1S(=O)(=O)N(C(C)C)C1CC1` [Compound 130, 3-(N-Cyclopropyl-N-isopropylsulfamoyl)-2-isopropyl-N-phenylimidazo[1,2-a]pyridine-7-carboxamide], the IC50 was less than 100 nM.

For the compound `CC(C)c1nc2cc(C(=O)Nc3ccccc3)ccn2c1S(=O)(=O)N(C1CC1)C1CC1` [Compound 131, 3-(N,N-Dicyclopropylsulfamoyl)-2-isopropyl-N-phenylimidazo[1,2-a]pyridine-7-carboxamide], the IC50 is less than 100 nM.

Take `CC(C)c1nc2cc(C(=O)N3CCc4ccccc43)ccn2c1S(=O)(=O)N1CCCCC1` [Compound 136, Indolin-1-yl{2-isopropyl-3-(piperidin-1-ylsulfonyl)imidazo[1,2-a]pyridin-7-yl}methanone]: the IC50 is less than 100 nM.

With `O=C(Nc1ccccc1)c1ccn2c(S(=O)(=O)N3CC(F)(F)C3)c(C3CC3)nc2c1` [Compound 138, 2-Cyclopropyl-3-(3,3-difluoroazetidin-1-ylsulfonyl)-N-phenylimidazo[1,2-a]pyridine-7-carboxamide], the IC50 was less than 100 nM.

The test is the same for the next values; noted with them: human Cav3.2-expressing KJMGER8 cells (Namalwa-derived); calcium response induced by 5 mmol/L CaCl2; normalised to 3 μmol/L mibefradil; read-out: IC50 for the human Cav3.2 T-type Ca2+ current.
In the case of `Cc1cc(C(=O)NCC2COCCOC2)cc2nc(C(F)(F)F)c(CC3CCC(F)(F)CC3)n12` [Compound 93, N-{(1,4-Dioxepan-6-yl)methyl}-3-(4,4-difluorocyclohexylmethyl)-5-methyl-2-trifluoromethylimidazo[1,2-a]pyridine-7-carboxamide], the IC50 is less than 100 nM.

Turning to `O=C(Nc1ccccc1)c1cc2nc(C(F)(F)F)c(CC3CCC(F)(F)CC3)n2cc1Cl` [Compound 107, 6-Chloro-3-(4,4-difluorocyclohexylmethyl)-N-phenyl-2-trifluoromethylimidazo[1,2-a]pyridine-7-carboxamide], the IC50 is less than 100 nM.

For `C=Cc1cn2c(CC3CCC(F)(F)CC3)c(C(F)(F)F)nc2cc1C(=O)Nc1ccccc1` [Compound 120, 3-(4,4-Difluorocyclohexylmethyl)-N-phenyl-2-trifluoromethyl-6-vinylimidazo[1,2-a]pyridine-7-carboxamide], the IC50 is less than 100 nM.

Regarding `Cc1cc(-c2nc3ccccc3[nH]2)cc2nc(C(F)(F)F)c(CC3CCC(F)(F)CC3)n12` [Compound 127, 2-{3-(4,4-Difluorocyclohexylmethyl)-5-methyl-2-trifluoromethylimidazo[1,2-a]pyridin-7-yl}-1H-benzimidazole], the IC50 is less than 100 nM.

As for `CC(C)c1nc2cc(C(=O)Nc3ccccc3)ccn2c1S(=O)(=O)NC(C1CC1)C1CC1` [Compound 129, 3-{N-(Dicyclopropylmethyl)sulfamoyl}-2-isopropyl-N-phenylimidazo[1,2-a]pyridine-7-carboxamide], the IC50 is less than 100 nM.

As to `CC(C)c1nc2cc(C(=O)Nc3ccccc3)ccn2c1S(=O)(=O)N(C)c1ccccc1` [Compound 132, 2-Isopropyl-3-(N-methyl-N-phenylsulfamoyl)-N-phenylimidazo[1,2-a]pyridine-7-carboxamide], the concentration for half-maximal inhibition (IC50) was less than 100 nM.

Consider `CC(C)c1nc2cc(C(=O)NOCc3ccccc3)ccn2c1S(=O)(=O)N1CC(F)(F)C1` [Compound 135, N-(Benzyloxy)-3-(3,3-difluoroazetidin-1-ylsulfonyl)-2-isopropylimidazo[1,2-a]pyridine-7-carboxamide], for which the IC50 was less than 100 nM.

As to `CS(=O)(=O)c1nc2cc(C(=O)Nc3ccccc3)ccn2c1S(=O)(=O)N1CCC(F)(F)CC1` [Compound 143, 3-(4,4-Difluoropiperidin-1-ylsulfonyl)-2-(methylsulfonyl)-N-phenylimidazo[1,2-a]pyridine-7-carboxamide], the IC50 was less than 100 nM.

Regarding `O=C(Nc1ccccc1)c1ccn2c(S(=O)(=O)N3CC(F)(F)C3)c(C(F)(F)F)nc2c1` [Compound 146, 3-(3,3-Difluoroazetidin-1-ylsulfonyl)-N-phenyl-2-trifluoromethylimidazo[1,2-a]pyridine-7-carboxamide], the IC50 is less than 100 nM.
